Assay results from the NIST ThermoML archive (doi:10.1021/je200822w).
± gives the expanded uncertainty stated by the source.

Assay: activity coefficient (dimensionless); of the first substance listed, at infinite dilution; xn = mol fraction of the nth substance listed
Conditions: 318.15 K; 101 kPa; Liquid; Chromatography; x1 = 0

Row | activity coefficient | Structure (SMILES)
1 | 1.19 ± 0.08 | COCCOC [1,2-dimethoxyethane] + CCCC[N+]1(C)CCCC1.N#CN=C=[N-]
2 | 0.568 ± 0.041 | FC(F)(F)C(Cl)Br (stereo not drawn) [1-bromo-1-chloro-2,2,2-trifluoroethane] + CCCC[N+]1(C)CCCC1.N#CN=C=[N-]
3 | 6.04 ± 0.41 | COC(C)(C)C [2-methoxy-2-methylpropane] + CCCC[N+]1(C)CCCC1.N#CN=C=[N-]
4 | 0.67 ± 0.045 | CC#N [acetonitrile] + CCCC[N+]1(C)CCCC1.N#CN=C=[N-]
5 | 1.41 ± 0.09 | c1ccccc1 [benzene] + CCCC[N+]1(C)CCCC1.N#CN=C=[N-]
6 | 21.1 ± 1.4 | C1CCCCC1 [cyclohexane] + CCCC[N+]1(C)CCCC1.N#CN=C=[N-]
7 | 0.541 ± 0.04 | ClCCl [dichloromethane] + CCCC[N+]1(C)CCCC1.N#CN=C=[N-]
8 | 17.9 ± 1.2 | CC(C)OC(C)C [diisopropyl ether] + CCCC[N+]1(C)CCCC1.N#CN=C=[N-]
9 | 1.26 ± 0.08 | COC(=O)OC [dimethyl carbonate] + CCCC[N+]1(C)CCCC1.N#CN=C=[N-]
10 | 0.55 ± 0.04 | CCO [ethanol] + CCCC[N+]1(C)CCCC1.N#CN=C=[N-]
11 | 2.33 ± 0.16 | CCOC(C)=O [ethyl acetate] + CCCC[N+]1(C)CCCC1.N#CN=C=[N-]
12 | 3.52 ± 0.24 | CCc1ccccc1 [ethylbenzene] + CCCC[N+]1(C)CCCC1.N#CN=C=[N-]
13 | 50.1 ± 3.4 | CCC1CCCCC1 [ethylcyclohexane] + CCCC[N+]1(C)CCCC1.N#CN=C=[N-]
14 | 76 ± 5.2 | CCCCCCC [heptane] + CCCC[N+]1(C)CCCC1.N#CN=C=[N-]
15 | 0.344 ± 0.032 | CO [methanol] + CCCC[N+]1(C)CCCC1.N#CN=C=[N-]
16 | 1.51 ± 0.1 | COC(C)=O [methyl ethanoate] + CCCC[N+]1(C)CCCC1.N#CN=C=[N-]
17 | 32.5 ± 2.2 | CC1CCCCC1 [methylcyclohexane] + CCCC[N+]1(C)CCCC1.N#CN=C=[N-]
18 | 47.3 ± 3.2 | C=CCCCCCC [oct-1-ene] + CCCC[N+]1(C)CCCC1.N#CN=C=[N-]
19 | 115 ± 8 | CCCCCCCC [octane] + CCCC[N+]1(C)CCCC1.N#CN=C=[N-]
20 | 0.688 ± 0.046 | CCCO [propan-1-ol] + CCCC[N+]1(C)CCCC1.N#CN=C=[N-]
21 | 0.771 ± 0.05 | CC(C)O [propan-2-ol] + CCCC[N+]1(C)CCCC1.N#CN=C=[N-]
22 | 1.36 ± 0.09 | C1CCOC1 [tetrahydrofuran] + CCCC[N+]1(C)CCCC1.N#CN=C=[N-]
23 | 0.851 ± 0.055 | c1ccsc1 [thiophene] + CCCC[N+]1(C)CCCC1.N#CN=C=[N-]
24 | 0.391 ± 0.034 | ClC(Cl)Cl [trichloromethane] + CCCC[N+]1(C)CCCC1.N#CN=C=[N-]

Row | Structure (SMILES) | activity coefficient
25 | Cc1cccc(C)c1 [1,3-dimethylbenzene] + CCCC[N+]1(C)CCCC1.N#CN=C=[N-] | 3.46 ± 0.24
26 | CC(C)=O [acetone] + CCCC[N+]1(C)CCCC1.N#CN=C=[N-] | 0.905 ± 0.057
27 | CCC(C)=O [butanone] + CCCC[N+]1(C)CCCC1.N#CN=C=[N-] | 1.26 ± 0.08
28 | C[N+](=O)[O-] [nitromethane] + CCCC[N+]1(C)CCCC1.N#CN=C=[N-] | 0.592 ± 0.042
29 | ClC(Cl)(Cl)Cl [tetrachloromethane] + CCCC[N+]1(C)CCCC1.N#CN=C=[N-] | 2.04 ± 0.14
30 | Cc1ccccc1 [toluene] + CCCC[N+]1(C)CCCC1.N#CN=C=[N-] | 2.17 ± 0.15

Same assay, conditions: 323.15 K; 101 kPa; Liquid; Chromatography; x1 = 0

Row | activity coefficient | Structure (SMILES)
31 | 1.23 ± 0.08 | COCCOC [1,2-dimethoxyethane] + CCCC[N+]1(C)CCCC1.N#CN=C=[N-]
32 | 0.606 ± 0.042 | FC(F)(F)C(Cl)Br (stereo not drawn) [1-bromo-1-chloro-2,2,2-trifluoroethane] + CCCC[N+]1(C)CCCC1.N#CN=C=[N-]
33 | 6.13 ± 0.42 | COC(C)(C)C [2-methoxy-2-methylpropane] + CCCC[N+]1(C)CCCC1.N#CN=C=[N-]
34 | 0.676 ± 0.046 | CC#N [acetonitrile] + CCCC[N+]1(C)CCCC1.N#CN=C=[N-]
35 | 1.42 ± 0.09 | c1ccccc1 [benzene] + CCCC[N+]1(C)CCCC1.N#CN=C=[N-]
36 | 20.6 ± 1.4 | C1CCCCC1 [cyclohexane] + CCCC[N+]1(C)CCCC1.N#CN=C=[N-]
37 | 0.558 ± 0.04 | ClCCl [dichloromethane] + CCCC[N+]1(C)CCCC1.N#CN=C=[N-]
38 | 17.9 ± 1.2 | CC(C)OC(C)C [diisopropyl ether] + CCCC[N+]1(C)CCCC1.N#CN=C=[N-]
39 | 1.27 ± 0.08 | COC(=O)OC [dimethyl carbonate] + CCCC[N+]1(C)CCCC1.N#CN=C=[N-]
40 | 0.545 ± 0.04 | CCO [ethanol] + CCCC[N+]1(C)CCCC1.N#CN=C=[N-]
41 | 2.35 ± 0.16 | CCOC(C)=O [ethyl acetate] + CCCC[N+]1(C)CCCC1.N#CN=C=[N-]
42 | 3.55 ± 0.24 | CCc1ccccc1 [ethylbenzene] + CCCC[N+]1(C)CCCC1.N#CN=C=[N-]
43 | 48.4 ± 3.3 | CCC1CCCCC1 [ethylcyclohexane] + CCCC[N+]1(C)CCCC1.N#CN=C=[N-]
44 | 73.6 ± 5 | CCCCCCC [heptane] + CCCC[N+]1(C)CCCC1.N#CN=C=[N-]
45 | 0.344 ± 0.032 | CO [methanol] + CCCC[N+]1(C)CCCC1.N#CN=C=[N-]
46 | 1.53 ± 0.1 | COC(C)=O [methyl ethanoate] + CCCC[N+]1(C)CCCC1.N#CN=C=[N-]
47 | 31.7 ± 2.2 | CC1CCCCC1 [methylcyclohexane] + CCCC[N+]1(C)CCCC1.N#CN=C=[N-]
48 | 46.3 ± 3.2 | C=CCCCCCC [oct-1-ene] + CCCC[N+]1(C)CCCC1.N#CN=C=[N-]
49 | 110 ± 8 | CCCCCCCC [octane] + CCCC[N+]1(C)CCCC1.N#CN=C=[N-]
50 | 0.68 ± 0.046 | CCCO [propan-1-ol] + CCCC[N+]1(C)CCCC1.N#CN=C=[N-]
51 | 0.761 ± 0.05 | CC(C)O [propan-2-ol] + CCCC[N+]1(C)CCCC1.N#CN=C=[N-]
52 | 1.38 ± 0.09 | C1CCOC1 [tetrahydrofuran] + CCCC[N+]1(C)CCCC1.N#CN=C=[N-]
53 | 0.868 ± 0.055 | c1ccsc1 [thiophene] + CCCC[N+]1(C)CCCC1.N#CN=C=[N-]
54 | 0.411 ± 0.034 | ClC(Cl)Cl [trichloromethane] + CCCC[N+]1(C)CCCC1.N#CN=C=[N-]

Row | Structure (SMILES) | activity coefficient
55 | Cc1cccc(C)c1 [1,3-dimethylbenzene] + CCCC[N+]1(C)CCCC1.N#CN=C=[N-] | 3.5 ± 0.24
56 | CC(C)=O [acetone] + CCCC[N+]1(C)CCCC1.N#CN=C=[N-] | 0.917 ± 0.058
57 | CCC(C)=O [butanone] + CCCC[N+]1(C)CCCC1.N#CN=C=[N-] | 1.27 ± 0.08
58 | C[N+](=O)[O-] [nitromethane] + CCCC[N+]1(C)CCCC1.N#CN=C=[N-] | 0.596 ± 0.042
59 | ClC(Cl)(Cl)Cl [tetrachloromethane] + CCCC[N+]1(C)CCCC1.N#CN=C=[N-] | 2.11 ± 0.14
60 | Cc1ccccc1 [toluene] + CCCC[N+]1(C)CCCC1.N#CN=C=[N-] | 2.2 ± 0.15

Same assay, conditions: 333.15 K; 101 kPa; Liquid; Chromatography; x1 = 0

Row | activity coefficient | Structure (SMILES)
61 | 1.31 ± 0.09 | COCCOC [1,2-dimethoxyethane] + CCCC[N+]1(C)CCCC1.N#CN=C=[N-]
62 | 0.694 ± 0.047 | FC(F)(F)C(Cl)Br (stereo not drawn) [1-bromo-1-chloro-2,2,2-trifluoroethane] + CCCC[N+]1(C)CCCC1.N#CN=C=[N-]
63 | 6.29 ± 0.43 | COC(C)(C)C [2-methoxy-2-methylpropane] + CCCC[N+]1(C)CCCC1.N#CN=C=[N-]
64 | 0.68 ± 0.046 | CC#N [acetonitrile] + CCCC[N+]1(C)CCCC1.N#CN=C=[N-]
65 | 1.46 ± 0.1 | c1ccccc1 [benzene] + CCCC[N+]1(C)CCCC1.N#CN=C=[N-]
66 | 19.5 ± 1.3 | C1CCCCC1 [cyclohexane] + CCCC[N+]1(C)CCCC1.N#CN=C=[N-]
67 | 0.591 ± 0.042 | ClCCl [dichloromethane] + CCCC[N+]1(C)CCCC1.N#CN=C=[N-]
68 | 18 ± 1.2 | CC(C)OC(C)C [diisopropyl ether] + CCCC[N+]1(C)CCCC1.N#CN=C=[N-]
69 | 1.29 ± 0.08 | COC(=O)OC [dimethyl carbonate] + CCCC[N+]1(C)CCCC1.N#CN=C=[N-]
70 | 0.538 ± 0.039 | CCO [ethanol] + CCCC[N+]1(C)CCCC1.N#CN=C=[N-]
71 | 2.39 ± 0.16 | CCOC(C)=O [ethyl acetate] + CCCC[N+]1(C)CCCC1.N#CN=C=[N-]
72 | 3.6 ± 0.25 | CCc1ccccc1 [ethylbenzene] + CCCC[N+]1(C)CCCC1.N#CN=C=[N-]
73 | 45.1 ± 3.1 | CCC1CCCCC1 [ethylcyclohexane] + CCCC[N+]1(C)CCCC1.N#CN=C=[N-]
74 | 68.9 ± 4.7 | CCCCCCC [heptane] + CCCC[N+]1(C)CCCC1.N#CN=C=[N-]
75 | 0.345 ± 0.032 | CO [methanol] + CCCC[N+]1(C)CCCC1.N#CN=C=[N-]

Row | Structure (SMILES) | activity coefficient
76 | Cc1cccc(C)c1 [1,3-dimethylbenzene] + CCCC[N+]1(C)CCCC1.N#CN=C=[N-] | 3.56 ± 0.24
77 | CC(C)=O [acetone] + CCCC[N+]1(C)CCCC1.N#CN=C=[N-] | 0.942 ± 0.059
78 | CCC(C)=O [butanone] + CCCC[N+]1(C)CCCC1.N#CN=C=[N-] | 1.32 ± 0.09
